Test results as given in patent US8551951B2, “Pharmaceutical preparations and methods for inhibiting tumors” (Aenorasis SA Pharmaceuticals and Medical Devices, priority 2000, dated 2013).
Peptide text beside a SMILES is read from it.

Tests used:
PC-3 cells [1] = assay: [^3H]-Thymidine uptake assay; format: cell-based, human; settings: GMP grade
Experimental: The in vitro growth inhibition effect of rHuPSP94 was assessed using [^3H]-Thymidine uptake assay. [^3H]-Thymidine uptake assay involves [^3H]-Thymidine incorporation into cellular DNA of actively proliferating cells. It measures the proliferative index of the cells versus the MTS assay, which quantifies the number of lived cells following treatment. Cells were seeded in Costar 96 well cell culture flat bottom plates in RPMI supplemented media containing 50 μg/ml of bovine serum albumin (BSA) and 0.1 μM FeSO4. PC-3 cells were exposed to various concentrations of rHuPSP94 for 72 hours and during the final 16 hours of incubation cells were pulsed with 1 μCi of [^3H]-Thymidine. The radioactivity in each well of the plate is counted by a beta-counter and is expressed as total counts per minutes (cpm). Results of in vitro effect of rHuPSP94 on PC-3 cells using the ^3[H]-Thymidine uptake assay are summarized in Table 3 and are expressed as percentage of radioactivity measured for treated-cells relative to the radioactivity measured for non-treated cells (for which [^3H]-thymidine uptake value was set at 100%).
[^3H]-Thymidine uptake assay involves [^3H]-Thymidine incorporation into cellular DNA of actively proliferating cells. [^3H]-Thymidine uptake assay measures the proliferative index of the cells versus the MTS assay, which quantifies the number of lived cells following treatment. The anti-proliferative effects of PCK3145 and two other synthetic polypeptides derived from the amino and carboxy terminus ends of PSP94 (SEQ ID NO: 4 and NO: 6, respectively) as well as the decapeptide (SEQ ID NO: 3) previously shown to mimic the biological action of native PSP94 were assessed in [H3]-Thymidine uptake assay on PC-3 cells. Two separate experiments were conducted with GMP-grade PCK3145.

PC-3 cells [2] = assay: DNA fragmentation assay (DNA ladder, apoptosis); format: cell-based, human; settings: for DNA laddering effect: various concentrations
Method in brief: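 PC-3 cells were exposed for 72 h to the polypeptides at various concentrations, PCK3145 at 500 μg/ml in supplemented medium; untreated cells and doxorubicin served as controls. Isolated DNA was run on 1.2% agarose with ethidium bromide, and a DNA ladder was scored as apoptotic fragmentation.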

[3] = tested on: human prostate cancer cells PC-3; assay: MTS assay, growth inhibitory effect on PC-3 cells; format: cell-based; settings: for growth inhibition of PC-3 cells (FIG. 10): 72 hours
From the text: Cell proliferation was monitored on PC-3 cells using the MTS/PMS (phenazine methosulfate) kit (Promega), which primarily measures mitochondrial activity of live cells. The basic principle of this method involves the fact that the mitochondrial enzymes of the live cells metabolize the MTS/PMS dyes forming a brown colored precipitate which can be measured as optical density (OD) by absorption at 490 nm in a spectrophotometer. Therefore, the OD values are proportional to the number of living cells. In addition, monitoring of cell morphology was also performed. Cell morphology would be indicative of their health status. For example, viable cells would appear adherent and spread out whereas dead cells would be in suspension in the media and would appear granular and round.
PC-3 cells (ATCC, Lot AT06) used in these experiments were at a passage number lower or equal to 70 (n≧70). Cells were seeded in Costar 96 well cell culture flat bottom plates in RPMI supplemented media containing 50 μg/ml of bovine serum albumin (BSA) and 0.1 μM FeSO4. Peptide was diluted in the same media. Cells were continuously exposed to the polypeptides of the present invention for 72 hours without changing media. Native PSP94 or rHuPSP94 concentrated two fold were directly added to wells and diluted to 1× in order to minimize cell manipulation and avoid detachment.
Native PSP94, rHuPSP94, polypeptide 22-36 and PB111 polypeptide (scrambled polypeptide) were also included in this experiment as controls. Cell proliferation assay was performed on either PC-3 cells or normal fibroblasts (used here as control) using the MTS/PMS kit (Promega). Four thousand cells (FIGS. 9 and 10) or three thousand (FIG. 11) cells were seeded in Costar 96 well cell culture flat bottom plates in RPMI supplemented media containing 50 μg/ml of bovine serum albumin (BSA) and 0.1 μM FeSO4. In addition, monitoring of cell morphology was also performed.
This assay measures the mitochondrial activity of the live cells. The basic principle of this method involves the fact that the mitochondrial enzymes of the live cells metabolize the MTS/PMS dyes forming a brown colored precipitate which can be measured as optical density (OD) by absorption at 490 nm in a spectrophotometer. Therefore, the OD values are proportional to the number of living cells.
In addition, a visual observation of the cells was also done to check the cell morphology, which could also be indicative of cell growth. The following conditions for MTS assay were used: PC-3 (ATCC, Lot AT06), passage number n≧70, cell line adapted to grow in serum-free OPTI-MEM and in RPMI supplemented with BSA (50 μg/ml) and Ferrous Sulfate (0.1 μM), continuous exposure for up to 72 hours without changing media (i.e., adding PCK3145 at 2× concentration directly to wells and diluting it 1:2 to 1× to minimize cell manipulation and avoid detachment).

| Molecule | reduction in [^3H]-Thymidine uptake (PC-3 cells [1]; 200 μg/ml, first experiment) | inhibition of [^3H]-Thymidine uptake (PC-3 cells [1]; 400 μg/ml, second experiment) | DNA laddering effect (FIG. 7 lane 5) (PC-3 cells [2]; 22.5 μM) | DNA laddering effect (FIG. 7 lane 6) (PC-3 cells [2]; 45 μM) | DNA fragmentation (FIG. 25) (PC-3 cells [2]; 500 μg/ml, 72 hours, supplemented media) | DNA laddering effect (PC-3 cells [2]; 72 hours) | inhibitory effect on the growth of PC-3 cells ([3]; 0 to 400 μg/ml, tests repeated 5 times) | growth inhibition of PC-3 cells (FIG. 10) [3] |
| --- | --- | --- | --- | --- | --- | --- | --- | --- |
| C[C@@H](O)[C@H](NC(=O)[C@H](CCC(=O)O)NC(=O)[C@H](Cc1ccc(O)cc1)NC(=O)[C@H](CS)NC(=O)[C@@H](NC(=O)[C@H](CS)NC(=O)[C@@H](NC(=O)[C@H](CCC(=O)O)NC(=O)[C@H](CS)NC(=O)[C@H](CC(N)=O)NC(=O)[C@H](CC(=O)O)NC(=O)[C@@H](NC(=O)[C@H](CCC(N)=O)NC(=O)[C@H](Cc1c[nH]c2ccccc12)NC(=O)[C@@H](N)CCC(=O)O)[C@@H](C)O)[C@@H](C)O)[C@@H](C)O)C(=O)O [PCK3145, EWQTDNCETCTCYET] (H-EWQTDNCETCTCYET-OH; N-terminus and C-terminus assumed) | ~40% | 25% | DNA laddering effect | DNA laddering effect | resulted in DNA fragmentation | induced a DNA laddering effect characteristic of apoptosis | dose dependent inhibitory effect | significant growth inhibition |
| polypeptide 7-21: PSP94 derived synthetic polypeptide from the amino terminus end, SEQ ID NO: 4 (NEGVPGDSTRKCMDL; Polypeptide 7-21) | – | – | – | – | – | induced a DNA laddering effect characteristic of apoptosis | – | significant growth inhibition |
